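Results reflect a 48-hour exposure of cells in 96-well plates to compound at five concentrations. Abbreviation: GI50, concentration required for 50% inhibition of growth.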 The source made the active and inactive calls. No stated cut-off is given here; in the data, active = GI50 up to about 1.1 µM and inactive = higher. Peptide text beside a SMILES is read from it. * marks the point of attachment. Trt = c1ccc(C(c2ccccc2)(c2ccccc2)*)cc1; Cbz = O=C(OCc1ccccc1)*
Assays:
Experiment in all cases: growth of human tumour cells (NCI), 48 h
HCC 2998 = system: HCC 2998
NCI-H460 = system: NCI-H460
HCT-15 = system: HCT-15
MDA-MB-435 = system: MDA-MB-435
HCT-116 = system: HCT-116
M14 = system: M14
K562 = system: K562
NCI/ADR-RES = system: NCI/ADR-RES
SW-620 = system: SW-620
NCI-H522 = system: NCI-H522
SK-OV-3 = system: SK-OV-3
SN12C = system: SN12C
RPMI-8226 = system: RPMI-8226
Hs-578T = system: Hs-578T
SK-MEL-28 = system: SK-MEL-28
EKVX = system: EKVX
MCF7 = system: MCF7
PC-3 = system: PC-3
HL-60 = system: HL-60
LOX IMVI = system: LOX IMVI

| SMILES | GI50 (HCC 2998) | GI50 (NCI-H460) | GI50 (HCT-15) | GI50 (MDA-MB-435) | GI50 (HCT-116) | GI50 (M14) | GI50 (K562) | GI50 (NCI/ADR-RES) | GI50 (SW-620) | GI50 (NCI-H522) | GI50 (SK-OV-3) | GI50 (SN12C) | GI50 (RPMI-8226) | GI50 (Hs-578T) | GI50 (SK-MEL-28) | GI50 (EKVX) | GI50 (MCF7) | GI50 (PC-3) | GI50 (HL-60) | GI50 (LOX IMVI) |
| --- | --- | --- | --- | --- | --- | --- | --- | --- | --- | --- | --- | --- | --- | --- | --- | --- | --- | --- | --- | --- |
| CN(C)CCCNC(=O)CCNC(=O)c1cc(NC(=O)c2cc(NC(=O)c3cc(NC(=O)c4nccn4C)cn3C)cn2C)cn1C | > 100 µM (inactive) | > 100 µM (inactive) | > 100 µM | > 100 µM (inactive) | > 100 µM (inactive) | > 100 µM (inactive) | > 100 µM (inactive) | > 100 µM (inactive) | > 100 µM (inactive) | 5.47 µM (inactive) | > 100 µM (inactive) | > 100 µM (inactive) | > 100 µM (inactive) | > 100 µM (inactive) | > 100 µM (inactive) | > 100 µM (inactive) | > 100 µM (inactive) | > 100 µM (inactive) | 18.8 µM (inactive) | 21.9 µM (inactive) |
| Clc1ccccc1/C=C/c1ccnc2ccccc12 | 18.2 µM (inactive) | 16.2 µM (inactive) | 13.9 µM | 15.8 µM (inactive) | 15.7 µM (inactive) | 17.3 µM (inactive) | 15.9 µM (inactive) | 15.2 µM (inactive) | 18.4 µM (inactive) | 14.3 µM (inactive) | 18.5 µM (inactive) | 16.4 µM (inactive) | 7.8 µM (inactive) | 20.7 µM (inactive) | 19.6 µM (inactive) | 5.48 µM (inactive) | 11.6 µM (inactive) | 16.4 µM (inactive) | 19.8 µM (inactive) | 18.4 µM (inactive) |
| Oc1nc2cc(Cl)ccc2nc1/C(=N\Nc1ccccc1)C(O)c1ccc2c(c1)OCO2 (stereo not given) | > 100 µM (inactive) | > 100 µM (inactive) | > 100 µM | > 100 µM (inactive) | > 100 µM (inactive) | > 100 µM (inactive) | > 100 µM (inactive) | > 100 µM (inactive) | > 100 µM (inactive) | > 100 µM (inactive) | > 100 µM (inactive) | > 100 µM (inactive) | > 100 µM (inactive) | > 100 µM (inactive) | > 100 µM (inactive) | > 100 µM (inactive) | > 100 µM (inactive) | > 100 µM (inactive) | > 100 µM (inactive) | > 100 µM (inactive) |
| O=C(O)c1ccc(NNC(=O)c2cccc3c(=O)c4ccccc4[nH]c23)cc1 | > 100 µM (inactive) | 92.9 µM (inactive) | > 100 µM | > 100 µM (inactive) | > 100 µM (inactive) | > 100 µM (inactive) | 58.6 µM (inactive) | > 100 µM (inactive) | > 100 µM (inactive) | 25.4 µM (inactive) | > 100 µM (inactive) | > 100 µM (inactive) | > 100 µM (inactive) | > 100 µM (inactive) | > 100 µM (inactive) | 57.9 µM (inactive) | > 100 µM (inactive) | > 100 µM (inactive) | 50.8 µM (inactive) | 44.6 µM (inactive) |
| O=C1OC(=O)C2CCCC3CCCC1C32 (stereo not given) | > 100 µM (inactive) | > 100 µM (inactive) | > 100 µM | > 100 µM (inactive) | > 100 µM (inactive) | > 100 µM (inactive) | > 100 µM (inactive) | > 100 µM (inactive) | > 100 µM (inactive) | > 100 µM (inactive) | > 100 µM (inactive) | > 100 µM (inactive) | > 100 µM (inactive) | > 100 µM (inactive) | > 100 µM (inactive) | > 100 µM (inactive) | > 100 µM (inactive) | > 100 µM (inactive) | > 100 µM (inactive) | > 100 µM (inactive) |
| COC(=O)C(CO)NC(=O)C(CSC(c1ccccc1)(c1ccccc1)c1ccccc1)NC(=O)OCc1ccccc1 (stereo not given) (Cbz-Cys(Trt)-Ser-OMe; configuration not given here) | 14.9 µM (inactive) | 8.81 µM (inactive) | 19.2 µM | 15.2 µM (inactive) | 12.3 µM (inactive) | 19.4 µM (inactive) | 15.3 µM (inactive) | 16.8 µM (inactive) | 15.5 µM (inactive) | 15.5 µM (inactive) | 24.6 µM (inactive) | 13.3 µM (inactive) | 0.36 µM (active) | 18.5 µM (inactive) | 17 µM (inactive) | 16 µM (inactive) | 14.8 µM (inactive) | 12.3 µM (inactive) | 5.75 µM (inactive) | 15.7 µM (inactive) |
| CC1(O)CCC(C(C)(C)O)CC1 (stereo not given) [TERPIN] | > 100 µM (inactive) | > 100 µM (inactive) | > 100 µM | > 100 µM (inactive) | > 100 µM (inactive) | > 100 µM (inactive) | > 100 µM (inactive) | > 100 µM (inactive) | > 100 µM (inactive) | > 100 µM (inactive) | > 100 µM (inactive) | > 100 µM (inactive) | > 100 µM (inactive) | > 100 µM (inactive) | > 100 µM (inactive) | 0.505 µM (active) | > 100 µM (inactive) | > 100 µM (inactive) | > 100 µM (inactive) | > 100 µM (inactive) |

— ChEMBL document CHEMBL1201862, “PubChem BioAssay data set” (2004)
